Assay results as given in ChEMBL document CHEMBL1201862, “PubChem BioAssay data set” (2004).
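Test compounds were applied to cells in 96-well plates for 48 hours at 5 doses. GI50 is the concentration that inhibits growth by half.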 The source made the active and inactive calls. Cut-off read from the data, not from the text of the source: active = GI50 up to about 1.1 µM and inactive = higher.

Columns and labels:
Test in all cases: NCI tumour cell line growth inhibition, 48 h
NCI-H23 = system: NCI-H23
HCC 2998 = system: HCC 2998
XF498 = system: XF498
SNB-19 = system: SNB-19
K562 = system: K562
SNB-78 = system: SNB-78
CAKI-1 = system: CAKI-1
SF-268 = system: SF-268
HT-29 = system: HT-29
HL-60 = system: HL-60
NCI-H522 = system: NCI-H522
HOP-18 = system: HOP-18
HOP-62 = system: HOP-62
COLO 205 = system: COLO 205
SW-620 = system: SW-620
TK-10 = system: TK-10
KM-20L2 = system: KM-20L2
CCRF-CEM = system: CCRF-CEM
SK-MEL-5 = system: SK-MEL-5
NCI-H460 = system: NCI-H460
SK-MEL-2 = system: SK-MEL-2
OVCAR-3 = system: OVCAR-3
DMS-114 = system: DMS-114
DMS-273 = system: DMS-273
UACC-62 = system: UACC-62
DLD-1 = system: DLD-1
SN12C = system: SN12C
M19-MEL = system: M19-MEL
OVCAR-5 = system: OVCAR-5
SR = system: SR
SF-539 = system: SF-539
KM12 = system: KM12
SK-MEL-28 = system: SK-MEL-28
IGROV-1 = system: IGROV-1
U-251 = system: U-251
SNB-75 = system: SNB-75
EKVX = system: EKVX
LXFL 529 = system: LXFL 529
SK-OV-3 = system: SK-OV-3
UO-31 = system: UO-31
RXF 631 = system: RXF 631
A498 = system: A498
HOP-92 = system: HOP-92
786-0 = system: 786-0
UACC-257 = system: UACC-257
RXF 393 = system: RXF 393
ACHN = system: ACHN
A549 = system: A549
M14 = system: M14
SF-295 = system: SF-295
HCT-15 = system: HCT-15
Malme-3M = system: Malme-3M
RPMI-8226 = system: RPMI-8226
LOX IMVI = system: LOX IMVI
NCI-H226 = system: NCI-H226
HCT-116 = system: HCT-116
OVCAR-8 = system: OVCAR-8
MOLT-4 = system: MOLT-4
OVCAR-4 = system: OVCAR-4

## Clc1ccc2c(c1)[nH]c1c2nc2sccn21
NCI-H23
  GI50: > 100 µM (inactive)
HCC 2998
  GI50: > 100 µM (inactive)
XF498
  GI50: > 100 µM (inactive)
SNB-19
  GI50: > 100 µM (inactive)
K562
  GI50: > 100 µM (inactive)
SNB-78
  GI50: > 100 µM (inactive)
CAKI-1
  GI50: > 100 µM (inactive)
SF-268
  GI50: > 100 µM (inactive)
HT-29
  GI50: > 100 µM (inactive)
HL-60
  GI50: > 100 µM (inactive)
NCI-H522
  GI50: > 100 µM (inactive)
HOP-18
  GI50: > 100 µM (inactive)
HOP-62
  GI50: > 100 µM (inactive)
COLO 205
  GI50: > 100 µM (inactive)
SW-620
  GI50: > 100 µM (inactive)
TK-10
  GI50: > 100 µM (inactive)
KM-20L2
  GI50: > 100 µM (inactive)
CCRF-CEM
  GI50: > 100 µM (inactive)
SK-MEL-5
  GI50: > 100 µM (inactive)
NCI-H460
  GI50: > 100 µM (inactive)
SK-MEL-2
  GI50: > 100 µM (inactive)
OVCAR-3
  GI50: > 100 µM (inactive)
DMS-114
  GI50: > 100 µM (inactive)
DMS-273
  GI50: > 100 µM (inactive)
UACC-62
  GI50: > 100 µM (inactive)
DLD-1
  GI50: > 100 µM (inactive)
SN12C
  GI50: > 100 µM (inactive)
M19-MEL
  GI50: > 100 µM (inactive)
OVCAR-5
  GI50: > 100 µM (inactive)
SR
  GI50: > 100 µM (inactive)
SF-539
  GI50: > 100 µM (inactive)
KM12
  GI50: > 100 µM (inactive)
SK-MEL-28
  GI50: > 100 µM (inactive)
IGROV-1
  GI50: > 100 µM (inactive)
U-251
  GI50: > 100 µM (inactive)
SNB-75
  GI50: 28.6 µM (inactive)
EKVX
  GI50: > 100 µM (inactive)
LXFL 529
  GI50: > 100 µM (inactive)
SK-OV-3
  GI50: > 100 µM (inactive)
UO-31
  GI50: > 100 µM (inactive)
RXF 631
  GI50: > 100 µM (inactive)
A498
  GI50: > 100 µM (inactive)
HOP-92
  GI50: > 100 µM (inactive)
786-0
  GI50: > 100 µM (inactive)
UACC-257
  GI50: > 100 µM (inactive)
RXF 393
  GI50: > 100 µM (inactive)
ACHN
  GI50: > 100 µM (inactive)
A549
  GI50: > 100 µM (inactive)
M14
  GI50: > 100 µM (inactive)
SF-295
  GI50: > 100 µM (inactive)
HCT-15
  GI50: > 100 µM
Malme-3M
  GI50: > 100 µM (inactive)
RPMI-8226
  GI50: > 100 µM (inactive)
LOX IMVI
  GI50: > 100 µM (inactive)
NCI-H226
  GI50: > 100 µM (inactive)
HCT-116
  GI50: > 100 µM (inactive)
OVCAR-8
  GI50: > 100 µM (inactive)
MOLT-4
  GI50: > 100 µM (inactive)
OVCAR-4
  GI50: > 100 µM (inactive)
